Four compounds from patent publication US9371290B2, “Pyridazinone compounds” (BIOTIE THERAPIES CORPORATION, priority 2011, dated 2016) can be followed below.

For series [1], the target named is T1, Recombinant human VAP-1 SSAO (Homo sapiens, UniProt Q16853).
T1 construct: made in house; host or cells: Chinese Hamster Ovary (CHO) cells; clarified NP40 cell lysate used directly
T1 sequence (Q16853 1-763): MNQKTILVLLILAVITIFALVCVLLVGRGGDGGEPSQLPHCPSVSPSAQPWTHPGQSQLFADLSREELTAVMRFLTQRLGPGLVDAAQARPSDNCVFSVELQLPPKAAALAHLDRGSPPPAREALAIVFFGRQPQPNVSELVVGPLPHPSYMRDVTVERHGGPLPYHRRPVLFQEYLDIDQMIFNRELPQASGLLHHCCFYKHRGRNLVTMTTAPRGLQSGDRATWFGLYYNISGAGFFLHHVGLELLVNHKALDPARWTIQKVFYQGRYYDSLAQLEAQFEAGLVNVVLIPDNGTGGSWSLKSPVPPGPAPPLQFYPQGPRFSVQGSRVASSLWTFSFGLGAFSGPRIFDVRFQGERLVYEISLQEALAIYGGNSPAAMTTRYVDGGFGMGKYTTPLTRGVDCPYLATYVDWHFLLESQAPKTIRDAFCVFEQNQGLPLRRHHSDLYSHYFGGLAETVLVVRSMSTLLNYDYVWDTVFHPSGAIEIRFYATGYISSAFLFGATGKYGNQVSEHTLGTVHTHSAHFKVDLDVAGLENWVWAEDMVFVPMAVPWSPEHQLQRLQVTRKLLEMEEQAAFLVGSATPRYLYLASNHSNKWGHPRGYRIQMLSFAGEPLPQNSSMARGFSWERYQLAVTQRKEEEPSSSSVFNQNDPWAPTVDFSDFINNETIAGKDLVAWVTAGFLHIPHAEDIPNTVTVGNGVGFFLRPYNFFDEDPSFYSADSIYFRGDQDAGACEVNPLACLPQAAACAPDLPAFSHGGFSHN
Briefly: In vitro inhibition of VAP-1 SSAO activity (coupled colorimetric method, benzylamine substrate). The series is classed as biochemical. The note with it: CHO cell lysate, 1 mM benzylamine, read-out: VAP-1 SSAO Inhibitory activity IC50. The procedure: VAP-1 SSAO activity was measured using the coupled colorimetric method essentially as described for monoamine oxidase and related enzymes (Holt, A., et al., Anal. Biochem. 244:384-392 (1997)). Recombinant human VAP-1 SSAO expressed in Chinese Hamster Ovary (CHO) cells was used as a source of VAP-1 SSAO for activity measurements. Native CHO cells have negligible SSAO activity. These cells and their culture have previously been described (Smith, D. J., et al., J. Exp. Med. 188:17-27 (1998)). A cell lysate was prepared by suspending approximately 3.6×10^8 cells in 25 ml lysis buffer (150 mM NaCl, 10 mM Tris-Base pH 7.2, 1.5 mM MgCl2, 1% NP40) and incubating at 4° C. overnight on a rotating table. The lysate was clarified by centrifugation at 18 000 g for 5 min at room temperature and the supernatant used directly in the assay. The VAP-1 SSAO assay was performed in 96 well microtitre plates as follows. To each well was added a predetermined amount of inhibitor if required. The amount of inhibitor varied in each assay but was generally at a final concentration of between 1 nM and 50 μM. Controls lacked inhibitor. The inhibitor was in a total volume of 20 μl in water. The following reagents were then added. 0.2 M potassium phosphate buffer pH 7.6 to a total reaction volume of 200 μl, 50 μl of freshly made chromogenic solution containing 1 mM vanillic acid, 500 μM 4-aminoantipyrine and 8 U/ml horseradish peroxidase and an amount of CHO cell lysate containing VAP-1 SSAO that caused a change of 0.6 A490 per h. This was within the linear response range of the assay. The plates were incubated for 30 min at 37° C. and the background absorbance measured at 490 nm using a Wallac Victor II multilabel counter. To initiate the enzyme reaction 20 μl 10 mM benzylamine (final concentration=1 mM) was added and the plate incubated for 1 h at 37° C. The increase in absorbance, reflecting VAP-1 SSAO activity, was measured at 490 nm. Inhibition was presented as percent inhibition compared to control after correcting for background absorbance and IC50 values calculated using GraphPad Prism.

For series [2], the system named is Total MAO. Briefly: Total rat MAO activity (rat liver mitochondrial preparation, tyramine substrate). The series is classed as biochemical. Conditions: at 50 μM. The procedure: Rat MAO was prepared from rat liver by rinsing the 1 g liver sample several times in 14 ml KCl-EDTA-solution to remove all blood. Then 1 g liver sample was homogenized in 4 ml ice-cold potassium phosphate buffer (0.1 M, pH 7.4) with an Ultra-Turrax homogenizer (setting 11 000 rpm, 4×10 s). After centrifugation at 500 g for 10 min at 4° C. the supernatant was carefully withdrawn and was centrifuged at 12 300 g for 15 min at 4° C. The supernatant was discharged and sedimented mitochondria were resuspended in 4 ml fresh phosphate buffer and centrifuged as previously. The mitochondria were suspended in 4 ml phosphate buffer and homogenized with an Ultra-Turrax homogenizer (setting 11 000 rpm, 2×10 s). Mitochondrial preparate was aliquoted and stored at −70° C. Total MAO activity was measured in a similar way as for VAP-1 SSAO except that SSAO enzyme was replaced by MAO enzyme. To each well was added a predetermined amount of inhibitor if required. The amount of inhibitor varied in each assay but was generally at a final concentration of between 10 nM and 800 μM. Controls lacked inhibitor. The inhibitor was in a total volume of 20 μl in water. The following reagents were then added. 0.2 M potassium phosphate buffer pH 7.6 for a total reaction volume of 200 μl, 50 μl of freshly made chromogenic solution (as above) and 50 μl of MAO preparation (or needed amount of MAO). The plates were incubated for 30 min at 37° C. and the background absorbance measured at 490 nm using a Wallac Victor II multilabel counter. To initiate the enzyme reaction 20 μl of 5 mM tyramine (final concentration 0.5 mM) was added and the plate incubated for 1 h at 37° C. The increase in absorbance, reflecting MAO activity, was measured at 490 nm. Inhibition was presented as percent inhibition compared to control after correcting for background absorbance and IC50 values calculated using GraphPad Prism. Clorgyline and pargyline (inhibitors of MAO-A and -B respectively) at 0.5 μM were added to some wells as positive controls for MAO inhibition.

The term IC50 denotes the concentration that gives 50% inhibition. As a reminder, the melting point is the temperature of the solid-liquid transition. For the compound `O=c1cc(Nc2ccc(N3CCOCC3)cc2)c(-c2nc[nH]n2)nn1-c1ccc(Cl)cc1` [Compound 74], the melting point was in the range of 248 to 250 °C. In series [1], the concentration for half-maximal inhibition (IC50) turned out to be 0.1 µM. Moreover, the “Total MAO Inhibitory activity (%)” value in series [2] was 0%.

`C#CCNc1cc(=O)n(-c2ccc(Cl)cc2)nc1-c1nc[nH]n1` [Compound 75] showed a melting point of 252 to 254 °C. In series [1], the IC50 is 0.22 µM. Besides, the “Total MAO Inhibitory activity (%)” value in series [2] is 0%.

Regarding `O=c1cc(Nc2ccc(N3CCN(Cc4ccccc4)CC3)cc2)c(-c2nc[nH]n2)nn1-c1ccc(Cl)cc1` [Compound 77], the melting point lay in the range of 248 to 251 °C. Moreover, the IC50 in series [1] turned out to be 0.35 µM. Further, in series [2], the “Total MAO Inhibitory activity (%)” value turned out to be 24%.

`C#CCCNc1cc(=O)n(-c2ccc(Cl)cc2)nc1-c1nc[nH]n1` [Compound 83] came in with a melting point of 176 to 177 °C. Moreover, the IC50 in series [1] was 0.073 µM. In addition, the “Total MAO Inhibitory activity (%)” value in series [2] came out at 0%.
